In one test the target is human orexin 1 receptors (Homo sapiens (Human), UniProt O43613). The test is described as follows: Calcium Accumulation in Cells (FLIPR), antagonism of orexin A. Conditions: for Ki: antagonism of orexin A, Cheng-Prusoff corrected, read-out: FLIPR hOx1R Ki; for inhibition at 10 µM: measured at a concentration of 10 μM of compound, read-out: FLIPR hOx1R % inhibition value. It counts as cell-based. As to the method:
(§1) Calcium Accumulation in Cells (FLIPR):
Cells expressing human orexin 1 or human orexin 2 receptors, were seeded at 8,000 cells/well in 384 well black-walled clear bottom, poly-D-lysine coated plates. After 24 h, the medium was removed and cells were washed once with phosphate buffered saline and serum-deprived overnight in assay buffer (130 mM NaCl, 5.4 mM KCl, 1.8 mM CaCl2, 0.8 mM MgSO4, 0.9 mM NaH2PO4, 25 mM glucose, 20 mM HEPES, pH 7.4) containing bovine serum albumin (1% w/v).
On the day of the experiment, the cells seeded in black plates were treated with assay buffer containing the Ca^2+ sensitive fluorescent dye Fluo4-AM (2 μM), and probenecid (0.1 mM). After 1 h plates were washed twice with, and resuspended in, assay buffer containing probenecid (0.1 mM) using a multi plate washer. The plates were placed into a FLIPR II (Fluorometric Imaging Plate Reader, Molecular Devices, Sunnyvale, Calif., USA) and baseline fluorescence (fluorescence light units, FLU) was measured (5 measurements, 2 S each; laser excitation 488 nm at 0.6-1 W, CCD camera exposure 0.4 s) before addition of buffer alone (basal) or containing test compounds (either compound of formula (I) or (I′) alone, agonist alone or agonist in the presence of various concentrations of compounds of formula (I) or (I′)). Fluorescence measurements were then continued every 1 S for 120 S followed by every 4 S for 240 S.
(§2) The measurements were typically made in two sequences:
(§3) In the first round, compounds of formula (I) or (I′) were tested alone, to detect possible agonist activity. Compounds of formula I or I′ were tested usually in a concentration range from 10^−9 M to 10^−5 M.
(§4) In the second round, performed one hour later (to allow for equilibration), Orexin A was tested either in the absence (calibration curves, Orexin A agonist controls) or in the presence of compounds of formula (I) or (I′) to determine antagonism.

A further test deals with human orexin 2 receptors (Homo sapiens (Human), UniProt O43614). The description is as above. Conditions: for Ki: antagonism of orexin A, Cheng-Prusoff corrected, read-out: FLIPR hOx2R Ki; for inhibition at 10 µM: measured at a concentration of 10 μM of compound, read-out: FLIPR hOx2R % inhibition value. In kind it is cell-based. How it is done: as §1
Cells expressing human orexin 1 or human orexin 2 receptors, were seeded at 8,000 cells/well in 384 well black-walled clear bottom, poly-D-lysine coated plates.
On the day of the experiment, the cells seeded in black plates were treated with assay buffer containing the Ca^2+ sensitive fluorescent dye Fluo4-AM (2 μM), and probenecid (0.1 mM). After 1 h plates were washed twice with, and resuspended in, assay buffer containing probenecid (0.1 mM) using a multi plate washer. […] Fluorescence measurements were then continued every 1 S for 120 S followed by every 4 S for 240 S.
as §2, §3, §4

human orexin 2 receptors, sequence (O43614 whole entry): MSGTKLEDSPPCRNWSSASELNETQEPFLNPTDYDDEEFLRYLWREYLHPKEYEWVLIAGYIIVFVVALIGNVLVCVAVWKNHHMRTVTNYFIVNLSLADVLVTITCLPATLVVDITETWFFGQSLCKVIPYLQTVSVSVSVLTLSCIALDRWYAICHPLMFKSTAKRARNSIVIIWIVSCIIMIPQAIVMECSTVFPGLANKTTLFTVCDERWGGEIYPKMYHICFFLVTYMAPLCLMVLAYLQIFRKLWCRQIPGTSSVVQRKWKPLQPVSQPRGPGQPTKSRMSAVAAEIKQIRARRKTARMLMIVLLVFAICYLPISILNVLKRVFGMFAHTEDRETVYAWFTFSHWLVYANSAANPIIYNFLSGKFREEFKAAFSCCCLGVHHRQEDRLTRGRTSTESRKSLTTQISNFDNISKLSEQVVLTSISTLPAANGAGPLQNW
human orexin 1 receptors, sequence (O43613 whole entry): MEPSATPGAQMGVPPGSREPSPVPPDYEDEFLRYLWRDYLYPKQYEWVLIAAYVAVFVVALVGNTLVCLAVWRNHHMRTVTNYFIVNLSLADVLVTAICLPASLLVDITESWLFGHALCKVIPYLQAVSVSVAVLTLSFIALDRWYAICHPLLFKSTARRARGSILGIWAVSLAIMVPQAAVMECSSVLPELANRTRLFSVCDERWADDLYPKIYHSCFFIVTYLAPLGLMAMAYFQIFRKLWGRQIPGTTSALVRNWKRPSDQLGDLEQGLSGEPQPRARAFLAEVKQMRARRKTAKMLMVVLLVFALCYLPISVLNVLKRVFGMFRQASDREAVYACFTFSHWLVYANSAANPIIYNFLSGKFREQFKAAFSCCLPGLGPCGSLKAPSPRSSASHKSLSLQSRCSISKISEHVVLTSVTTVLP

With `COc1ccc(CNC(=O)COc2cc(C)c3c(C4CC4)nn(C)c3n2)cc1Cl` [Example 7.16, N-(3-chloro-4-methoxybenzyl)-2-(3-cyclopropyl-1,4-dimethyl-1H-pyrazolo[3,4-b]pyridin-6-yloxy)acetamide], the inhibition constant (Ki) on human orexin 1 receptors was found to be 3630 nM; on human orexin 2 receptors, 1030 nM.

Take `COc1cncc(-c2nn(C)c3nc(OCC(=O)N[C@@H](C)c4ccc(C)cc4)cc(C)c23)n1` [Example 4.12, (S)-2-(3-(6-methoxypyrazin-2-yl)-1,4-dimethyl-1H-pyrazolo[3,4-b]pyridin-6-yloxy)-N-(1-p-tolylethyl)acetamide]: the values for the inhibitory constant (Ki) on human orexin 1 receptors and at human orexin 2 receptors were 240 nM and 202 nM, respectively.

Turning to `Cc1ccc([C@H](C)NC(=O)COc2ccc3c(-c4ccccc4C)nn(C)c3n2)cc1` [Example 6.35, (S)-2-(1-methyl-3-o-tolyl-1H-pyrazolo[3,4-b]pyridin-6-yloxy)-N-(1-p-tolylethyl)acetamide], the Ki at human orexin 1 receptors was found to be 256 nM; on human orexin 2 receptors, 126 nM.

For the compound `C[C@H](NC(=O)COc1cc(C(F)(F)F)c2c(C3CCCC3)nn(C)c2n1)c1ccccc1` [Example 1.52, (S)-2-(3-cyclopentyl-1-methyl-4-(trifluoromethyl)-1H-pyrazolo[3,4-b]pyridin-6-yloxy)-N-(1-phenylethyl)acetamide], the Ki on human orexin 1 receptors worked out at 1170 nM; on human orexin 2 receptors, 868 nM.

On to `Cc1ccc([C@H](C)NC(=O)COc2cc(C)c3c(-c4cnc(C)n4C)nn(C)c3n2)cc1` [Example 4.4, (S)-2-(3-(1,2-dimethyl-1H-imidazol-5-yl)-1,4-dimethyl-1H-pyrazolo[3,4-b]pyridin-6-yloxy)-N-(1-p-tolylethyl)acetamide], for which the figures for the Ki on human orexin 1 receptors and on human orexin 2 receptors were 799 nM and 725 nM, respectively.

Turning to `CNC(=O)COc1cc(C)c2c(C3CC3)nn(C)c2n1` [Example 6.52], the inhibition at 10 µM at human orexin 1 receptors and at human orexin 2 receptors was below 10% throughout.

Regarding `Cc1cc(OCC(=O)NCC(C)C)nc2c1c(C1CC1)nn2C` [Example 6.45, 2-(3-cyclopropyl-1,4-dimethyl-1H-pyrazolo[3,4-b]pyridin-6-yloxy)-N-isobutylacetamide], the inhibition at 10 µM was determined as 20% at human orexin 1 receptors and 19% on human orexin 2 receptors.

Take `Cc1cc(OCC(=O)NC2CCCC2)nc2c1c(C1CC1)nn2C` [Example 6.46, N-cyclopentyl-2-(3-cyclopropyl-1,4-dimethyl-1H-pyrazolo[3,4-b]pyridin-6-yloxy)acetamide]: the inhibition at 10 µM on human orexin 1 receptors is 16%; at human orexin 2 receptors, 26%.

In the case of `Cc1ccc(C(C)NC(=O)COc2cc(C(F)F)c3c(C4CC4)nn(C)c3n2)cn1` (centres unmarked) [Example 6.19, 2-(3-cyclopropyl-4-(difluoromethyl)-1-methyl-1H-pyrazolo[3,4-b]pyridin-6-yloxy)-N-(1-(6-methylpyridin-3-yl)ethyl)acetamide], at human orexin 1 receptors, the inhibition at 10 µM amounted to 41%. Moreover, at human orexin 2 receptors, the Ki came out at 800 nM.

As to `COc1ccc(C(C)NC(=O)COc2cc(C)c3c(-c4cc(C)oc4C)nn(C)c3n2)cn1` (centres unmarked) [Example 6.32, 2-(3-(2,5-dimethylfuran-3-yl)-1,4-dimethyl-1H-pyrazolo[3,4-b]pyridin-6-yloxy)-N-(1-(6-methoxypyridin-3-yl)ethyl)acetamide], the Ki on human orexin 1 receptors is 845 nM; on human orexin 2 receptors it was 950 nM.

`Cc1cc(OCC(=O)NCc2ccc3c(c2)OCO3)nc2c1c(-c1ccccc1)nn2C` [Example 1.15, N-(benzo[d][1,3]dioxol-5-ylmethyl)-2-(1,4-dimethyl-3-phenyl-1H-pyrazolo[3,4-b]pyridin-6-yloxy)acetamide]: the inhibition at 10 µM at human orexin 1 receptors was 44%; on human orexin 2 receptors, 39%.

In the case of `CCn1ccc(C(C)NC(=O)COc2cc(C)c3c(C4CC4)nn(C)c3n2)n1` (centres unmarked) [Example 6.54], the inhibition at 10 µM was found to be 44% on human orexin 1 receptors and 29% at human orexin 2 receptors.

In the case of `Cc1cc(OCC(=O)NC(C)c2ccc3[nH]ccc3c2)nc2c1c(C1CC1)nn2C` (centres unmarked) [Example 7.17, N-(1-(1H-indol-5-yl)ethyl)-2-(3-cyclopropyl-1,4-dimethyl-1H-pyrazolo[3,4-b]pyridin-6-yloxy)acetamide], the Ki at human orexin 1 receptors was 414 nM; at human orexin 2 receptors, 94 nM.

For `COc1ccc(C(C)NC(=O)COc2cc(C)c3c(C4CC4)nn(C)c3n2)cc1F` (centres unmarked) [Example 7.19, 2-(3-cyclopropyl-1,4-dimethyl-1H-pyrazolo[3,4-b]pyridin-6-yloxy)-N-(1-(3-fluoro-4-methoxy-phenyl)ethyl)acetamide], the Ki worked out at 2620 nM on human orexin 1 receptors and 674 nM on human orexin 2 receptors.

With `COc1cccc(CNC(=O)COc2cc(C(F)(F)F)c3c(-c4ccccc4)nn(C)c3n2)c1` [Example 1.33, N-(3-methoxybenzyl)-2-(1-methyl-3-phenyl-4-(trifluoromethyl)-1H-pyrazolo[3,4-b]pyridin-6-yloxy)acetamide], the figures for the Ki at human orexin 1 receptors and on human orexin 2 receptors were 1650 nM and 427 nM, respectively.

As to `Cc1cc(OCC(=O)NCc2cccc3[nH]ncc23)nc2c1c(C1CC1)nn2C` [Example 7.15, N-((1H-indazol-4-yl)methyl)-2-(3-cyclopropyl-1,4-dimethyl-1H-pyrazolo[3,4-b]pyridin-6-yloxy)acetamide], the inhibition at 10 µM on human orexin 1 receptors stood at 26%; at human orexin 2 receptors it was 18%.

On to `COc1ccc(CNC(=O)COc2cc(C)c3c(C4CC4)nn(C)c3n2)c(OC)c1` [Example 7.27, 2-(3-cyclopropyl-1,4-dimethyl-1H-pyrazolo[3,4-b]pyridin-6-yloxy)-N-(2,4-dimethoxybenzyl)acetamide], for which the inhibition at 10 µM on human orexin 1 receptors was 48%. At human orexin 2 receptors, the Ki was found to be 472 nM.

As for `Cc1ccc([C@H](C)NC(=O)COc2cc(C)c3c(-c4cncn4C)nn(C)c3n2)cc1` [Example 4.11, (S)-2-(1,4-dimethyl-3-(1-methyl-1H-imidazol-5-yl)-1H-pyrazolo[3,4-b]pyridin-6-yloxy)-N-(1-p-tolylethyl)acetamide], the figures for the Ki at human orexin 1 receptors and at human orexin 2 receptors were 4330 nM and 1630 nM, respectively.

Turning to `Cc1cc(OCC(=O)NCCc2ccccc2)nc2c1c(C1CC1)nn2C` [Example 6.49, 2-(3-cyclopropyl-1,4-dimethyl-1H-pyrazolo[3,4-b]pyridin-6-yloxy)-N-phenethylacetamide], on human orexin 1 receptors, the inhibition at 10 µM amounted to 21%. Besides, the Ki on human orexin 2 receptors is 611 nM.

For `C[C@H](NC(=O)COc1cc(C(F)(F)F)c2c(C(C)(C)C)nn(C)c2n1)c1ccccc1` [Example 1.37, (S)-2-(3-tert-butyl-1-methyl-4-(trifluoromethyl)-1H-pyrazolo[3,4-b]pyridin-6-yloxy)-N-(1-phenylethyl)acetamide], the inhibition constant Ki is 1950 nM on human orexin 1 receptors and 298 nM at human orexin 2 receptors.

As to `CC(NC(=O)COc1cc(C(F)(F)F)c2c(-c3ccccc3)nn(C)c2n1)c1ccncc1` (centres unmarked) [Example 1.31, 2-(1-methyl-3-phenyl-4-(trifluoromethyl)-1H-pyrazolo[3,4-b]pyridin-6-yloxy)-N-(1-(pyridin-4-yl)ethyl)acetamide], the inhibition constant (Ki) at human orexin 1 receptors is 2110 nM. In addition, the inhibition at 10 µM on human orexin 2 receptors is 40%.

For `COc1ccc([C@@H](C)NC(=O)COc2cc(C(F)(F)F)c3c(-c4ccccc4)nn(C)c3n2)cc1` [Example 1.59, (R)-N-(1-(4-methoxyphenyl)ethyl)-2-(1-methyl-3-phenyl-4-(trifluoromethyl)-1H-pyrazolo[3,4-b]pyridin-6-yloxy)acetamide], the results for the Ki on human orexin 1 receptors and on human orexin 2 receptors were 2290 nM and 949 nM, respectively.

Consider `COc1ccc([C@H](C)NC(=O)COc2cc(C)c3c(C(C)C)nn(C)c3n2)cc1` [Example 6.27, (S)-2-(3-isopropyl-1,4-dimethyl-1H-pyrazolo[3,4-b]pyridin-6-yloxy)-N-(1-(4-methoxyphenyl)ethyl)acetamide], for which the Ki at human orexin 1 receptors is 415 nM; on human orexin 2 receptors, 105 nM.

In the case of `Cc1cc(OCC(=O)NCc2ccc(Cl)nc2)nc2c1c(C1CC1)nn2C` [Example 7.14, N-((6-chloropyridin-3-yl)methyl)-2-(3-cyclopropyl-1,4-dimethyl-1H-pyrazolo[3,4-b]pyridin-6-yloxy)acetamide], the inhibition at 10 µM came to 31% at human orexin 1 receptors and 20% on human orexin 2 receptors.

As to `Cc1cccc(C(C)NC(=O)COc2cc(C)c3c(C4CC4)nn(C)c3n2)c1` (centres unmarked) [Example 7.29, 2-(3-cyclopropyl-1,4-dimethyl-1H-pyrazolo[3,4-b]pyridin-6-yloxy)-N-(1-m-tolylethyl)acetamide], the Ki at human orexin 1 receptors amounted to 1800 nM; on human orexin 2 receptors, 900 nM.

Broadly, the Ki is a dissociation constant, usually derived from enzyme kinetics or from competition with a known ligand. For orientation: inhibition means the share of the control response that was lost under treatment.

For the origin of these results see patent US8742106B2 (Novartis AG, priority 2009, dated 2014).
